{"source": "patent US10278931B2", "about": "“Composition for treatment of inflammatory bowel disease and atopic dermatitis” (INNOPHARMASCREEN INC., priority 2015, dated 2019)", "key": {"[1]": {"tested_on": "balb/c mice with DNCB-induced atopic dermatitis", "experiment": "DNCB-induced atopic dermatitis model", "format": "in vivo", "conditions": "0.1% dexamethasone", "text": "(5) Reverse transcription-polymerase chain reaction (RT-PCR) quantitative real time PCR: Total RNA was isolated from cells and tissues, and cDNA was synthesized using a reverse transcriptase and was then reacted with cytokine primers to be analyzed, followed by PCR and real-time PCR. The RT-PCR products were subjected to electrophoresis using 1.5% agarose gel for analysis.\nA. Experimental animal: 5-week-old male BALB/c mice obtained from. Daehan Biolink (Eumseong, Chungbuk) were adapted for 2 weeks in a clean animal breeding room (small animal room #2-302) at Hoseo University Safety Evaluation Center, set under environmental conditions: temperature of 22±3° C.; relative humidity of 50±20%; ventilation frequency of 10 to 15 times/hour, illumination for 12 hours; and illuminance of 150 Lux to 300 Lux, and then used in an experiment.\n4 experimental animals were accommodated in each of polycarbonate cages (270×500×200 mm, KYERYONG SCIENCE). Feed (5053-Picolab Rodent 20, PMI Nutrition International) and drinking water (ultraviolet sterilized filtered water) were allowed to ingest freely. All procedures of the experiment were conducted after approved by the Ethics Committee of the Hoseo University Safety Evaluation Center (HTRC-15-19).\nB. Dermatitis induction: Hairs on the back of each mouse were removed and maintained for 24 hours, and then 150 μl of a 1% 2,4-dinitrochlorobenzene(DNCB) solution (acetone: olive oil=3:1) was applied on the hair-removed site once a week for 3 weeks. After week 3, the DNCB solution was applied on the site twice a week for 3 weeks to induce atopic dermatitis.\nC. Treatment: Mice were divided into 6 groups, and 0.5% DMSO was applied on animals as a control and 200 μl of each of 0.01 μM, 0.1 μM, and 1 μM test material was applied on animals as experimental groups for 3 weeks. 50 μl of 0.1% dexamethasone dissolved in a crude alcohol was applied on animals as a positive control at intervals of 2 days.\nD. Biopsy: After application of the test material was completed, the dorsal skin of each experimental animal was incised under heart anesthesia, some of them were rapidly frozen using liquid nitrogen and stored at −70° C. before analysis, and the remainder was fixed with 10% neutral buffered formalin for 24 hours. The fixed tissues were prepared into slides through general tissue processing, and then subjected to hematoxylin & eosin (H&E) staining to measure the thickness of the epidermal layer. In addition, toluidine blue staining was performed to observe a quantitative change of mast cells. While the stained tissues were observed by an optical microscope, the thickness of the epidermal layer and the number of mast cells were obtained using an image analyzer (Olympus DP-21).\nE. IgE level measurement: IgE concentration in blood was measured by (SHIBAYAGI, Japan) using serum collected when autopsy was performed. 50 μL of an IgE standard solution and the sample were placed in antibody-attached 96 wells and allowed to react for 2 hours, and then 50 μL of a biotin-conjugated anti-IgE antibody solution was added to each well and allowed to react for 2 hours. Thereafter, the resulting sample was reacted with a HRP-avidin solution for 1 hour and a chromogenic substrate (TBM) reagent for 20 minutes, and the reaction was stopped using a reaction stopper. Absorbance of the sample was measured at 450 nm using ELISA (Molecular devices Emax)."}, "[2]": {"tested_on": "HMC-1 cells", "experiment": "Cytotoxicity (MTT-assay) in HMC-1 cells", "format": "cell-based, human", "conditions": "10 μM", "method": "(§1) (1) Cell culture: A human mast cell line (HMC-1) was cultured in an IMDM supplemented with 10% FBS at 37° C. and 5% CO2. Candidate materials were dissolved in DMSO, and then filtered using a 0.22 μm filter. The resulting candidate materials were diluted with DMSO and the HMC-1 cells were treated therewith.\n[…] After culturing, the medium was replaced by a fresh medium, 5 mg/ml of an MTT solution was then added thereto, and the mast cells were incubated at 37° C. for 4 hours. 250 DMSO was added to the mast cells, MTT formazan was extracted therefrom, and absorbance of each well was measured at 540 nm using an ELISA reader."}, "[3]": {"tested_on": "TSLP secretion from human mast cells (HMC-1 cells)", "experiment": "TSLP secretion ELISA in PMACI-stimulated mast cells", "format": "cell-based", "conditions": "PMACI-stimulated HMC-1 cells, ELISA", "method": "as §1\n(3) Enzyme-linked immunosorbent assay (ELISA): Mast cells (3×10^6 cells/ml) were stabilized for 1 hour, and then treated with 0.1 μM, 1 μM, and 10 μM of candidate materials, followed by treatment with PMACI for 8 hours. The mast cells were centrifuged to obtain supernatants. To measure the amount of TSLP secreted from the cells, ELISA was used. The ELISA was performed in 96-well plates coated with 1 μg/well of TSLP capture Ab. The coated plates were washed twice with PBS. The cells were treated with PBS containing 10% FBS for 2 hours. Thereafter, the cells were washed with PBS containing 0.05% Tween-20 (Sigma), and recombinant TSLP was used to draw a standard curve. Subsequently, the plates were exposed to a biotinylated-TSLP antibody, Avidin peroxidase, an ARTS substrate containing 30% H2O2, and then measured at 405 nm."}, "[4]": {"tested_on": "HaCat cells", "experiment": "Cytotoxicity (MTT-assay) in HaCat cells", "format": "cell-based, human", "method": "as §1, with “skin” for “mast”, “(HaCat cells)” for “(HMC-1)”, “RPMI containing” for “an IMDM supplemented with”, “HaCat” for “HMC-1”\n(2) Cytotoxicity (MTT-assay): After stabilizing HaCat cells (3×10^5 cells/ml) for 1 hour, they were treated with candidate materials variously beginning from a concentration of 10 μM, followed by treatment with Poly (I:C) for 8 hours. Then, the medium was replaced by a fresh medium, 5 mg/ml of an MTT solution was then added thereto, and the mast cells were incubated at 37° C. for 4 hours. 250 DMSO was added to the HaCat cells, MTT formazan was extracted therefrom, and absorbance of each well was measured at 540 nm using an ELISA reader."}, "[5]": {"biological_target": "T1, caspase-1 (Homo sapiens, UniProt P29466)", "T1 construct": "a caspase-1 assay was conducted using cell extracts; endogenous in cells; host or cells: HMC-1 (human mast cells)", "T1 sequence (P29466 120-297 limits assumed)": "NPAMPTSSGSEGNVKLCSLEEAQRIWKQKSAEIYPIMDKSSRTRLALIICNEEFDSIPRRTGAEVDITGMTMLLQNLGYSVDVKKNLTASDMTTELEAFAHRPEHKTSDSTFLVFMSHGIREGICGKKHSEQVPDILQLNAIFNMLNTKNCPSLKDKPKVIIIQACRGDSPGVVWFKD", "T1 sequence (P29466 317-404 limits assumed)": "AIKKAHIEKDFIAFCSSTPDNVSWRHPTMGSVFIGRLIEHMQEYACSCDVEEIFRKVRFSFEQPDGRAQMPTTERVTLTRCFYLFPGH", "experiment": "Caspase-1 assay using HMC-1 cell extracts", "format": "cell-based"}, "[6]": {"tested_on": "DSS-induced animal model", "experiment": "DSS-induced inflammatory bowel disease (enteritis) model", "format": "in vivo, C57BL/6 mice", "method": "Six-week-old female SPF (Specific pathogen-free) C57BL/6 mice were purchased from DuPont Biotech. The mice were allowed to freely ingest a feed and water after an acclimation period of 1 week in an animal room of Hoseo University Safety Evaluation Center maintained at temperature of 21±3° C., humidity of 50±20%, and light/darkness cycle of 12 h/12 h. All procedures in the present animal experiment were conducted after approved by the Animal Experimental Ethics Committee of Hoseo University (HTRC-15-19, and HTRC-16-22(2)).\nDextran sodium sulfate (cat no 160110 by Mpbio. corn) as a colitis inducer was diluted to 3% concentration in drinking water and orally administered to mice to induce enteritis. The mice were divided into 6 groups and DW was administered to the animals of a control, and 1.0 mg/kg and 10 mg/kg of the test material were orally administered to the animals of the experimental groups once a day for […]. Sulfasalazine (100 mg/kg) dissolved in crude olive oil was orally administered once a day to the animals of a positive control. In acute cases, disease progression levels were examined after 5 days of administration. In chronic cases, disease progression levels were examined 15 days and 30 days after the 5 days of administration (reference: Toxicology Reports 2 (2015) 10391045-Caryophyllene attenuates dextran sulfate sodium-induced colitis in mice via modulation of gene expression associated mainly with colon inflammation).\nBody weights were measured once for 5 days or more during the test period. The measured weights were quantified as 0 point if there was no difference compared with the normal control, 1 point for weight loss rate of 15%, 2 points for 510%, 3 points for 1015%, and 4 points for >15%. Feces observation was performed to examine the incidence of diarrhea, and the results thereof were quantified as scores (0, normal stool; 1, mildly soft stool; 2, very soft stool; 3, very soft stool (no regular shape); 4, watery stool).\nRectal tissues and blood were collected from 5 individuals for each of the autopsy times. Yuhan ketamine 50® (Yuhan Corporation, Korean) and Rompun (Bayer, USA) were mixed in a ratio of 3:1, and then used to anesthetize animals via muscular injection. Each anesthetized animal was subjected to laparotomy to collect blood from the abdominal artery, and after blood collection, the abdominal artery was cut and subjected to venesection and death to collect rectal tissue. The length and weight of the collected tissue were measured to calculate weight per 1 cm of the tissue. Some of the collected tissues were used in biopsy, and some thereof were frozen in liquid nitrogen and stored at −70° C. before analysis. […]"}, "[7]": {"biological_target": "T2, human recombinant caspase-1 (Homo sapiens, UniProt P29466)", "T2 sequence (P29466 120-404)": "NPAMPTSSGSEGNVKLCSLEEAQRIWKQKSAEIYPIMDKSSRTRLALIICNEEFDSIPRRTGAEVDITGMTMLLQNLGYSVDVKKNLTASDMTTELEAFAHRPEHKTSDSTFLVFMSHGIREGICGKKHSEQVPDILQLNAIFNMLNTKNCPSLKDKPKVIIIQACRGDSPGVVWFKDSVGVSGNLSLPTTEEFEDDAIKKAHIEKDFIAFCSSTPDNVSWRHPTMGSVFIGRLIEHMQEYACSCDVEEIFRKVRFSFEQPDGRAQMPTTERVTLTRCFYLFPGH", "experiment": "Recombinant caspase-1 activity assay (kit)", "format": "biochemical", "conditions": "caspase-1 assay kit", "method": "(4) Caspase-1 assay: Recombinant caspase-1 and a drug were allowed to react, and then activity measurement was performed using a caspase-1 assay kit (R&D Systems Inc., Minneapolis, Minn., USA).\nRecombinant caspase-1 and a drug were allowed to react, and then activity was measured using a caspase-1 assay kit (R&D Systems Inc., Minneapolis, Minn., USA)."}}}
{"compound": "C[C@@H]1C[C@H]2[C@@H]3CCC4=CC(=O)C=C[C@]4(C)[C@@]3(F)[C@@H](O)C[C@]2(C)[C@@]1(O)C(=O)CO", "note": "[dexamethasone, reference compound]", "values": [{"measurement": "epidermal thickness", "setting": "[1]; DNCB group 87.1±13.0, normal 24.5±10.3", "value": "39.9±9.4", "unit": "μm"}, {"measurement": "blood IgE level", "setting": "[1]; DNCB group 790.0±151.8, no statistical significance", "value": "703.8±86.5"}]}
{"compound": "COc1ccc(NS(=O)(=O)c2cccc(S(=O)(=O)c3cccc(S(=O)(=O)Nc4ccc(OC)cc4)c3)c2)cc1", "note": "[IPS-07002]", "values": [{"measurement": "cytotoxicity (MTT-assay)", "setting": "[2]", "value": "did not exhibit cytotoxicity"}, {"measurement": "TSLP secretion from mast cells", "setting": "[3]", "value": "significantly inhibited"}]}
{"compound": "[H]/N=C(\\N/C(=N/[H])Nc1ccc(Cl)cc1)NC(C)C", "note": "[IPS-07004]", "values": [{"measurement": "cytotoxicity (MTT-assay)", "setting": "[4]", "value": "no cytotoxicity"}, {"measurement": "caspase-1 activity in HMC-1 cells", "setting": "[5]", "value": "inhibits"}, {"measurement": "enteritis inhibitory activity (ratio of enteric weight to enteric length, wt/cm)", "setting": "[6]; 10 mg/kg oral, compared to DSS control", "value": "superior enteritis inhibitory activity"}, {"measurement": "melena", "setting": "[6]; compared to the DSS-induced group, oral", "value": "significantly decreased"}, {"measurement": "recombinant caspase-1 activity", "setting": "[7]", "value": "inhibits"}]}
{"compound": "O=C([O-])CC(=O)NC12CC3CC(CC(C3)C1)C2.[Na+]", "note": "[IPS-07003]", "values": [{"measurement": "cytotoxicity (MTT-assay)", "setting": "[2]", "value": "did not exhibit cytotoxicity"}, {"measurement": "TSLP secretion from mast cells", "setting": "[3]", "value": "significantly inhibited"}]}
